What was measured:
BTK = BTK (Homo sapiens (Human), UniProt Q06187); assay: BTK degradation in OCI-LY10 cells (Total-BTK HTRF kit); format: cell-based; settings: 24 (or 6) h incubation; for DC50: DC50 = concentration when degradation rate reaches 50%, read-out: OCI-LY10 cell BTK degradation DC50; for Dmax: OCI-Ly10, OCI-LY10 cells
In short: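 OCI-LY10 cells seeded overnight, then treated with compound at 100 nM-0.098 nM in duplicate for 24 (or 6) h. Lysates probed by Total-BTK HTRF (d2/Eu cryptate antibodies, overnight, room temperature), read at 665/620 nm; DC50 and Dmax from four-parameter dose-response fits.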

OCI-LY10 cells = assay: Inhibitory activity on OCI-LY10 cell proliferation (CCK-8); format: cell-based
In short: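 Cells seeded at 1×10^5 cells/mL and incubated overnight were exposed in duplicate to final compound concentrations of 5000 nM-0.31 nM for 72 h. CCK-8 was added for 2.5 h and absorbance read at 450 nm. IC50 was obtained from four-parameter dose-response fits.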

BTK(WT) kinase = BTK(WT) kinase (Homo sapiens (Human), UniProt Q06187); assay: Inhibitory activity on BTK(WT) kinase; format: biochemical; settings: ATP 10 μM
BTK(WT) kinase, sequence (Q06187 whole entry): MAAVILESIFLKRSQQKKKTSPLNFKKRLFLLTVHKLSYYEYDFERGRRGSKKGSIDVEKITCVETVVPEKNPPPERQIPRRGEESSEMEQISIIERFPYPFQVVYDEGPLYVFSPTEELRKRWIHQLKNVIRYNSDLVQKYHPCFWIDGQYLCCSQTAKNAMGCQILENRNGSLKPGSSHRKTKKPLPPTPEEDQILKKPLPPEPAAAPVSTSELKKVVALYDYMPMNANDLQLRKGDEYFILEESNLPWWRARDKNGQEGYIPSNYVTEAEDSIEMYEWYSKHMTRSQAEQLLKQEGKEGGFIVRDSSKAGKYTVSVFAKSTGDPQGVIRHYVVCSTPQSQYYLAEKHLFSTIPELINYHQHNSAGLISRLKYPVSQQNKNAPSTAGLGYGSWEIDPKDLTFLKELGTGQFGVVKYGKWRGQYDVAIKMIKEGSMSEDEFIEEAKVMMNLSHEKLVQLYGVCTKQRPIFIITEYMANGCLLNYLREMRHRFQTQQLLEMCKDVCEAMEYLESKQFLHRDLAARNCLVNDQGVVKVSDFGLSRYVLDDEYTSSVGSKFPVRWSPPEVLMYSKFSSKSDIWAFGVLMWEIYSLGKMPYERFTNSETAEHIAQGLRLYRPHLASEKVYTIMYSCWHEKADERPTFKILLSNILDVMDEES
Experimental: (§1) The Assay Buffer was prepared, and the composition of the Assay Buffer was 50 mM Hepes (Gibco, 15630), 10 mM MgCl2, 2 mM DTT, 1 mM EGTA, and 0.010% Tween 20. BTK(WT) kinase (Life, PR5442A), ATP (Sigma, A7699), and ULight-poly GT (PE, TRF0100-M) working solutions were prepared using the Assay Buffer. EDTA and Eu-labeled anti-phosphotyrosine (PT66) antibody (PE, AD0069) working solutions were prepared using the Detection Buffer (PE, CR97-100). 6 μL of BTK(WT) kinase at the corresponding concentration (final concentration: 0.003 ng/L) was added to the compound groups and the control group, while 6 μL of the Assay Buffer was added to the blank group, and then the compounds (with the concentration set to 1000 nM at the maximum, 4-fold dilution, 7 concentration gradients) were each added using a nanoliter pipettor. The mixture was incubated at room temperature for 30 min, and then 4 μL of the mixture of ATP (final concentration: 10 μM) and ULight-poly GT (final concentration: 100 nM) was added. After incubation at room temperature for 2 h, 5 μL of EDTA (final concentration: 10 mM) was added to stop the reaction, and finally 5 μL of antibody (final concentration: 2 nM) was added. After incubation at room temperature for 1 h, signal values were detected at 665/615 nM, the four-parameter analysis was performed, the dose-response curves were fit, and IC50 was calculated.

BTK(C481S) kinase = BTK(C481S) kinase (Homo sapiens (Human), UniProt Q06187, C481S); assay: Inhibitory activity on BTK(C481S) kinase; format: biochemical; settings: ATP 10 μM
BTK(C481S) kinase, sequence (Q06187 whole entry C481S): as the sequence (Q06187 whole entry) above, with C481S counted along it
Experimental: as §1, with “BTK(C481S)” for “BTK(WT)”, “(Carna Biosciences, 08-547),” for “(Life, PR5442A),”, “Buffer.” for “Buffer (PE, CR97-100).”, “0.005 ng/μL)” for “0.003 ng/L)”, “were” for “were each”

EGFR kinase = EGFR kinase (Homo sapiens (Human), UniProt P00533); assay: Inhibitory activity on EGFR kinase; format: biochemical; settings: ATP 5 μM
EGFR kinase, sequence (P00533 669-1210): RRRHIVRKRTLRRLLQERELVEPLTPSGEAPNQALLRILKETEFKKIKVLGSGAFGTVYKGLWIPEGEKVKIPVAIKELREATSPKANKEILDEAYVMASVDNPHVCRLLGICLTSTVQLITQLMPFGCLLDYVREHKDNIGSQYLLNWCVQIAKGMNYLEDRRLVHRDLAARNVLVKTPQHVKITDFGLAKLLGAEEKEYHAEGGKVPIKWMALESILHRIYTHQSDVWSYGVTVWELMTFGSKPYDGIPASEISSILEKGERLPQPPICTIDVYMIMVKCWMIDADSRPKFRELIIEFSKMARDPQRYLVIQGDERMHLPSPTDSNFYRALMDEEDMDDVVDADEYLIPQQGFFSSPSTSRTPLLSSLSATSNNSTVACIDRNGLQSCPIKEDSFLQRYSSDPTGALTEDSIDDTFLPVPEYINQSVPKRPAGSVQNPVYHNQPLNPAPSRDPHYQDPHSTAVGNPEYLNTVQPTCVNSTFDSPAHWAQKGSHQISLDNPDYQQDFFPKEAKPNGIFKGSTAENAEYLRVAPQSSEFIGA
Experimental: The Assay Buffer was prepared, and the composition of the Assay Buffer was 50 mM Hepes (Gibco, 15630), 10 mM MgCl2, 2 mM DTT, 1 mM EGTA, and 0.010% Tween 20. EGFR kinase (Carna, 08-115), ATP (Sigma, A7699), and ULight-poly GT (PE, TRF0100-M) working solutions were prepared using the Assay Buffer. EDTA and Eu-labeled anti-phosphotyrosine (PT66) antibody (PE, AD0069) working solutions were prepared using the Detection Buffer. 6 μL of EGFR kinase at the corresponding concentration (final concentration: 0.006 ng/μL) was added to the compound groups and the control group, while 6 μL of the Assay Buffer was added to the blank group, and then the compounds (with the concentration set to 1000 nM at the maximum, 4-fold dilution, 7 concentration gradients) were added using a nanoliter pipettor. The mixture was incubated at room temperature for 30 min, and then 4 μL of the mixture of ATP (final concentration: 5 μM) and ULight-poly GT (final concentration: 100 nM) was added. After incubation at room temperature for 2 h, 5 μL of EDTA (final concentration: 10 mM) was added to stop the reaction, and finally 5 μL of antibody (final concentration: 2 nM) was added. After incubation at room temperature for 1 h, signal values were detected at 665/615 nM, the four-parameter analysis was performed, the dose-response curves were fit, and IC50 was calculated.

[1] = Homo sapiens, OCI-Ly10, 72 h incubation

BTK, sequence (Q06187 whole entry): as the sequence (Q06187 whole entry) above

DC50 (BTK; OCI-LY10 cells) [nM] | Dmax (BTK; maximum degradation rate) [%] | IC50 (OCI-LY10 cells; [1]) [nM] | IC50 (BTK(WT) kinase) [nM] | IC50 (BTK(C481S) kinase) [nM] | IC50 (EGFR kinase) [nM] | BTK degradation in OCI-LY10 cells Dmax (BTK; OCI-LY10 cells, maximum degradation rate) [%] | IC50 (OCI-LY10 cells; 72 h incubation) [nM] | SMILES
< 0.098 | 97 | < 0.31 | 0.96 | 9 | 109 |  |  | CN1CCN([C@@H]2CCCN(c3cnc(C(N)=O)c(Nc4ccc(N5CCC(CN6CCc7ccc8c(C9CCC(=O)NC9=O)noc8c7CC6)CC5)cc4)n3)C2)C1=O (some centres unmarked) [Compound 27]
 |  |  | 11 | 22 | 785 | >90 | < 0.31 | CN1CCN([C@@H]2CCCN(c3cnc(C(N)=O)c(Nc4ccc(C5CCC(N6Cc7ccc8c(C9CCC(=O)NC9=O)noc8c7C6)CC5)cc4)n3)C2)C1=O (some centres unmarked) [Compound 33]
< 0.098 | 99 | < 0.31 | 7.1 | 19.6 | 3320 |  |  | CN1CCN([C@@H]2CCCN(c3cnc(C(N)=O)c(Nc4ccc(C5CCN(C6CN(c7ccc8c(C9CCC(=O)NC9=O)noc8c7)C6)CC5)cc4)n3)C2)C1=O (some centres unmarked) [Compound 10]
